For 87 compounds, melting point results are on record in a melting point compilation (Tetko et al.; mined from patent text by program, amines drawn as free bases though some values may be those of a salt).

As a reminder, the melting point is the temperature of the solid-liquid transition. In the case of `O=C1CC(O)c2c1cc[nH]c2=O` (configuration not stated), the melting point is 200 °C. Regarding `O=C(CN1CCC(Cc2ccc(F)cc2)CC1)Nc1ccc2cn[nH]c2c1`, the melting point lay in the range of 135 to 137 °C. Take `CCc1noc(-c2cn(-c3nc[nH]n3)cn2)n1`: the melting point fell in the range of 242 to 243 °C. On to `Cc1oc(-c2ccccc2)nc1COc1ccc(COC(=O)Cc2cccc(OCc3ccc(OCc4nc(-c5ccccc5)oc4C)cc3)c2)cc1`, for which the melting point lay in the range of 90 to 91 °C. `O=c1c(Br)cc2cnc(Nc3ccccn3)nc2n1C1CCCC1` registered a melting point of 273 to 275 °C. In turn, `CCOc1ccccc1-c1ncc(C(N)=O)c(=O)[nH]1` had a melting point of 236 to 238 °C. As to `Cc1ccc(COc2ncc(F)c(NCO)n2)cc1`, the melting point was 97 to 98 °C. Next, `O=C(NC(=Cc1ccccc1)c1cccs1)C(F)(F)F`: 158 °C; `O=S(=O)(c1ccccc1)n1ccc2cc3c(cc21)OCO3`: 142 to 145 °C.

The compound `CCc1[nH]n(C2CCCC2)c2nc(-n3ccnc3)nc(=O)c1-2` gave a melting point of 228 to 230 °C. Compound `CCCCc1nc2c(N)nc3cccnc3c2n1CCNC(=O)C(CC(C)C)NC(=O)OC(C)(C)C` (configuration not stated) had a melting point of 184 to 185 °C. As to `CCC(C)C[C@@H]1O[C@H](CC(=O)Nc2cccc(OC(F)(F)C(=O)O)c2)C(=O)N(CC(C)(C)CO)c2ccc(Cl)cc21` (some centres not stated), the melting point was in the range of 119 to 121 °C. Take `CC(C)c1ccc(-c2ccc(/C=C/C(=O)O)s2)cc1`: the melting point fell in the range of 216 to 219 °C. Regarding `CC(c1oc2ccccc2c(=O)c1-c1cccc(F)c1)n1nc(-c2csc(C=O)c2)c2c(N)ncnc21` (configuration not stated), the melting point is 192 to 195 °C. Next, `CC1(Cc2ccc(O)cc2)OCCO1`: 61 to 64 °C. Turning to `CC(C)c1c(C=O)c(-c2ccc(F)cc2)nn1-c1ccccc1`, the melting point was 103 to 105 °C. Compound `CCCCn1c(=O)n(C)c(=O)c2nn(S(=O)(=O)CCCCl)cc21` displayed a melting point of 105 to 106 °C.

As for `OCc1ccccc1CCc1ccc(Br)cc1`, the melting point was in the range of 72 to 75.5 °C.

`FC(F)(F)c1nc(Cl)c(Cl)[nH]1` yielded a melting point of 186 to 188 °C. The compound `CCOCc1nc2cnc3cc(Br)cnc3c2n1CC(C)(C)F` showed a melting point of 127 to 128 °C. `CC(C)(C)OC(=O)NC1CCCCCC=CC2CC2(C(=O)NS(=O)(=O)C2CC2)NC(=O)C2CC(OC(=O)c3ccccc3)CN2C1=O` (configuration not stated) registered a melting point of 140 to 142 °C. As for `CCOC(=O)c1ncn2c1CN(Cc1ccc(OC)cc1OC)C(=O)c1ccccc1-2`, the figure is 136 to 138 °C; as for `CCC(O)c1cccc(S(N)(=O)=O)c1` (configuration not stated), 218 to 220 °C. As for `COC(=O)c1ccc(C#CC(O)c2ccc3c(c2)C(C)(C)CCC3(C)C)cc1O` (configuration not stated), the melting point was 92 to 93 °C.

Take `N#CCc1ccc(-n2cc(Cl)cn2)cc1Cl`: the melting point amounted to 140 °C. `CNC(=O)N1CC(Oc2ccccc2Cl)C1` showed a melting point of 130 to 132 °C. Turning to `COc1cc2c3ccc(OC)c(OC)c3n(C(=O)c3ccccc3)c2cc1OC`, the melting point was in the range of 184 to 185 °C.

Turning to `NC(=O)c1n[nH]c2c(=O)[nH]c3cc(Cl)ccc3c(=O)c12`, the melting point is 224 to 225 °C.

`COc1cc2ccc(CO)c(-c3ccnc(Br)c3)c2cc1OC` came in with a melting point of 150 to 153 °C.

For `Cc1ccc2occ(CC3=NOS(=O)N3)c2c1` (configuration not stated), the melting point fell in the range of 152 to 153 °C. Compound `Fc1ccc(C(=C(c2ccccc2)C(F)(F)F)c2ccc(OCCN3CCOCC3)cc2)cc1` had a melting point of 95 to 96 °C.

In turn, `Cc1cc(C)cc(OCC(=O)c2ccc(C(C)C)cc2)c1` registered a melting point of 68 to 69 °C.

The compound `O=C(c1ccc(Cl)cc1)c1cccc2c1CCC2C(=O)O` (configuration not stated) had a melting point of 137 to 139 °C.

With `COc1cc([N+](=O)[O-])c2nccc(C)c2c1OCCCc1ccccc1`, the melting point fell in the range of 100 to 102 °C. With `CSc1[nH]c(-c2cnn(-c3c(Cl)cc(C(F)(F)F)cc3Cl)n2)nc1[N+](=O)[O-]`, the melting point lay in the range of 153 to 155 °C.

In turn, `COc1ccc(C2CCN(C(=O)/C(=N/O)C(N)=O)CC2)cc1OC1CCCC1` came in with a melting point of 109 to 111 °C. In the case of `CC(C)(C)[Si](Oc1ccc(C=O)cc1)(c1ccccc1)c1ccccc1`, the melting point was in the range of 103 to 105 °C. Compound `Cc1c(CO)ncn1CCCNC(C)(C)c1ccc(Cl)cc1` showed a melting point of 97 to 99 °C. `CCOC(=O)C(=O)c1csc(NC(=O)CCl)n1` returned a melting point of 178 to 180 °C.

Turning to `Cc1ccc(S(=O)(=O)Nc2cccc(-c3nnc(-c4ccc(C(=O)O)cc4)o3)c2)cc1`, the melting point was > 275 °C.

Compound `Cc1c(N)ccc2[nH]cc(CCCO)c12` showed a melting point of 141 to 142 °C.

In turn, `CS(=O)(=O)c1ccc(-c2cnn(CC(F)(F)F)c(=O)c2-c2ccc(F)cc2)cc1` displayed a melting point of 177 to 179 °C. As for `Cc1c(C(O)c2ccccc2)nc2n1CCc1ccccc1C2OC1CCN(C)CC1` (configuration not stated), the figure is 85 °C; as for `Cc1nc2c(N)nc3ccccc3c2n1CC1(O)CCCCC1`, > 250 °C.

On to `CCOC(=O)c1c(C)nc2nccnc2c1NCCCN(C)C`, for which the melting point lay in the range of 42 to 44 °C. As for `c1cc(OCc2ccc3ccccc3n2)cc(C2SCCCS2)c1`, the figure is 92 to 93 °C; as for `CCCCCCCCCCCC(O)CC1COC1=O` (configuration not stated), 44.5 to 46 °C; as for `FC(F)(F)CSC1(c2cccc(OCc3ccc4ccccc4c3)c2)CCOCC1`, 76 to 78 °C.

Regarding `CC1(C)Oc2c([N+](=O)[O-])ccc(Cl)c2C1Br` (configuration not stated), the melting point was in the range of 103 to 104 °C. Next, `CC(=O)Nc1nc(N)c2ncn(C3OC(C(O)C(=O)O)C(O)C3O)c2n1` (configuration not stated): 295 °C; `COc1cc(C=CC(=O)C=Cc2cc(OC)c(OC)c(OC)c2)cc(OC)c1OC`: 45 to 47 °C; `O=C1NC(=O)C(n2cnc3ccccc32)=C1c1c[nH]c2ccccc12`: 310 to 320 °C. The compound `COC(=O)C(C)(C)OCC#Cc1cc(C(F)(F)F)ccc1NS(=O)(=O)c1ccc2c(c1)OCCN2C` gave a melting point of 98 to 100 °C. Compound `COC(=O)CC(O)CC(=O)C=Cc1ccc(Cl)cc1Cl` (configuration not stated) displayed a melting point of 77 to 79 °C. Next, `COC1CCC2(C)C(=CC(=O)C3C4CCC(=O)C4(C)CCC32)C1` (configuration not stated): 227 to 229 °C; `CON(C)C(=O)Nc1ccc(CN2OCC(C)(C)C2=O)c(Cl)c1`: 93 to 95 °C; `Cc1nc(Br)c(Br)n1Cc1cc2c(cc1Cl)OCO2`: 185 °C.

Take `c1ccc(Oc2cccc3c2CCN(Cc2c[nH]c4ncccc24)C3)cc1`: the melting point was 179 to 180 °C.

`Cc1cc2c(cc1C)C1(CO2)C(=O)N(C(c2ccccc2)c2ccccc2)c2ccccc21` (configuration not stated) returned a melting point of 193 to 195 °C.

On to `CCc1c(Br)c2ccccn2c1C(=O)c1ccc(O)cc1`, for which the melting point was in the range of 160 to 162 °C. `COC(=O)c1ccc(NC2CC2)c(S(N)(=O)=O)c1`: the melting point lay within 158 to 161 °C. Compound `Cc1ccc(C(N)(c2ccc3c(c2)c(-c2cccc(Cl)c2)nc2nnnn23)c2cncn2C)cc1` (configuration not stated) returned a melting point of 150 °C. As to `CCCCC(Cc1ccc(OCCNC(=O)c2ccc(-c3cccc(C(=O)O)c3)cc2)cc1)C(=O)O` (configuration not stated), the melting point fell in the range of 142 to 143 °C.

The compound `Cc1ccc(COc2ccc(C=C3CCCCC3=O)cc2)cc1` came in with a melting point of 148 to 149 °C. Next, `COc1ccc(NC(=O)Nc2ccc(Cl)c(Cl)c2)cc1NC(=S)Nc1cccc(C(=O)O)c1`: 209 to 211 °C; `CCOc1cc(-c2cc(C(F)F)n3ncc(C(=O)Nc4cccc(S(N)(=O)=O)c4)c3n2)ccc1C(F)(F)F`: 254 °C; `CCCCC1(CCCC)CS(=O)(=O)c2ccc(N(C)C)cc2C(c2ccc(OCc3ccc(CN(CC(=O)O)CC(=O)O)cc3)cc2)C1O` (configuration not stated): 175 °C.

`COC(=O)CCc1ccc(OCc2cccc(-c3cccc(C(=O)O)c3)c2)cc1` returned a melting point of 180 to 185 °C.

Take `COC(=O)c1ccc(OC)c([N+](=O)[O-])c1O`: the melting point was 185 to 187 °C. `C=Cc1ccc(N2C[C@H](CNC(C)=O)OC2=O)cc1F`: the melting point fell in the range of 165 to 166 °C. `O=C(c1c[nH]c2ccc(Br)cc12)[C@H]1CCCN1C(=O)OCc1ccccc1` had a melting point of 95 to 96 °C. Next, `COC(=O)[C@@H]1C(=O)Nc2ccccc2C[C@H]1c1ccc2c(c1)OCO2` (racemic): 211 to 214 °C; `COc1ccc(C2Sc3c(ccc4ccccc34)N(CCN(C)C)C(=O)C2OC(=O)c2cc(OC)c(OC)c(OC)c2)cc1` (configuration not stated): 189 to 190 °C.

The compound `CCCc1c(OCCCCCCc2ccc(C(=O)CCCC(=O)O)cc2CCC(=O)O)ccc2c1OCCC2=O` showed a melting point of 136 to 139 °C.

Turning to `Cc1nc2cc3c(cc2n1C)C(=O)OC3=O`, the melting point lay in the range of 310 to 315 °C. `CCCCCNC(=O)c1ccc(N2CCC(N3C(=O)C(F)(F)c4ccccc43)CC2)nn1` returned a melting point of 100 to 102 °C. With `CCCCn1c(C)c(C(=O)c2ccccc2C(=O)O)c2ccccc21`, the melting point is 88 to 92 °C.

`CCOC(=O)C1(CC(N)=O)C(=O)N2CCOc3cc(Cl)cc1c32` (configuration not stated): the melting point is 227 to 229 °C.

In turn, `C#CCOc1ccc2c(c1)c(-c1ccc(C(C)C)cc1)nc(=O)n2Cc1cccc([N+](=O)[O-])c1` yielded a melting point of 167 to 168 °C. Turning to `CCOC(=O)c1cc(=O)c2c(OCC(C)(O)Oc3ccc(Br)cc3)cccc2o1` (configuration not stated), the melting point is 79 to 80 °C.

As to `CN1CCc2c(O)c(F)cc3c(=O)c(C(=O)O)cn1c23`, the melting point was > 290 °C. In turn, `CN(c1ccc(O)cc1)c1nc2ccc(Br)cc2o1` had a melting point of 195 °C.

On to `Nc1ncnc2ncn(CCO)c12`, for which the melting point lay within 132 to 133 °C. `Cc1ccc(S(=O)(=O)c2ccc3[nH]c(C)c(CCNC(=O)OC(C)(C)C)c3c2)cc1` yielded a melting point of 134 to 138 °C. As for `CCO[C@@H]1C[C@H](C(=O)Nc2ccc(N3CCOCC3=O)c(C)c2)N(C(=O)Nc2ccc(Cl)cc2)C1`, the figure is 117 °C; as for `COc1cc(OC)nc(Nc2cc(C)ccc2N)n1`, 128 to 129 °C. Compound `CCCNC(=O)c1nc(-c2ccccc2)c(-c2ccc(=O)n(C(C)C)n2)s1` came in with a melting point of 141 to 142 °C.
